Experimental data published in US8193372B2, “Phosphothiophene and phosphothiazole HCV polymerase inhibitors” (Idenix Pharmaceuticals, Inc., priority 2009, dated 2012).

Key:
[1] = system: HCV Con1 subgenomic replicon of genotype 1b (GS4.1 cells); experiment: microbe, parasite or virus in culture; format: cell-based, HCV genotype 1b; conditions: Hepatitis C virus; for EC50: 72 h
[2] = in vitro; conditions: human

Question: What does the source list for COP(=O)(Nc1cc(-c2ccc(C#CC3CCCC3)cc2)sc1C(=O)O)c1ccc(C)cc1C (stereo not shown) [Compound 102]?
Answer: IC50 [1]: 0.1 to 8.3 µM; EC50 [1]: > 8.3 µM; CC50 [2]: > 8.3 µM

Question: For COP(=O)(Nc1cc(-c2ccc(CC(C)C)cc2)sc1C(=O)O)c1ccc(C)cc1C (stereo not shown) [Compound 154], which IC50 [1] is on record?
Answer: 0.1 to 8.3 µM

Question: What about the EC50 [1] of the same compound?
Answer: > 8.3 µM

Question: What about the CC50 [2] of the same compound?
Answer: > 8.3 µM

Question: Which IC50 [1] does the source give for COP(=O)(Nc1cc(-c2ccc(C#CCC(C)C)cc2)sc1C(=O)O)c1ccc(C)cc1C (stereo not shown) [Compound 104] here?
Answer: 0.1 to 8.3 µM

Question: What about the EC50 [1] of the same compound?
Answer: > 8.3 µM

Question: And the CC50 [2]?
Answer: > 8.3 µM

Question: Which IC50 [1] does the source give for CCCOP(=O)(Nc1cc(-c2ccc(Cl)cc2)sc1C(=O)O)c1ccc(C)cc1C (stereo not shown) [Compound 87] here?
Answer: 0.1 to 8.3 µM

Question: And the EC50 [1]?
Answer: 0.1 to 8.3 µM

Question: And the CC50 [2]?
Answer: > 8.3 µM

Question: With COP(=O)(Nc1cc(I)sc1C(=O)O)c1ccc(C)cc1C (stereo not shown) [Compound 116] as the compound, how does the IC50 [1] read?
Answer: 0.1 to 8.3 µM

Question: What about the EC50 [1] of the same compound?
Answer: > 8.3 µM

Question: What about the CC50 [2] of the same compound?
Answer: > 8.3 µM

Question: For COP(=O)(Nc1cc(-c2ccc(-c3ccc(OCc4ccccc4)nc3)cc2)sc1C(=O)O)c1ccc(C)cc1C (stereo not shown) [Compound 122], which IC50 [1] is on record?
Answer: 0.1 to 8.3 µM

Question: What about the EC50 [1] of the same compound?
Answer: > 8.3 µM

Question: What about the CC50 [2] of the same compound?
Answer: > 8.3 µM

Question: For COP(=O)(Cc1cc(-c2ccccc2)sc1C(=O)O)c1ccc(C)cc1C (stereo not shown) [Compound 177], which IC50 [1] is on record?
Answer: 0.1 to 8.3 µM

Question: And the EC50 [1]?
Answer: > 8.3 µM

Question: What about the CC50 [2] of the same compound?
Answer: > 8.3 µM

Question: With COP(=O)(Nc1cc(-c2ccc(-c3ccc(Cl)c(Cl)c3)cc2)sc1C(=O)O)c1ccc(C)cc1C (stereo not shown) [Compound 147] as the compound, how does the IC50 [1] read?
Answer: 0.1 to 8.3 µM

Question: And the EC50 [1]?
Answer: 0.1 to 8.3 µM

Question: What about the CC50 [2] of the same compound?
Answer: > 8.3 µM

Question: Which EC50 [1] does the source give for COC(=O)c1sc(-c2ccc(I)cc2)cc1NP(=O)(OC)c1ccc(C)cc1C (stereo not shown) [Compound 144] here?
Answer: > 8.3 µM

Question: And the CC50 [2]?
Answer: > 8.3 µM

Question: Which IC50 [1] does the source give for COP(=O)(Nc1cc(-c2ccc(-c3cc4ncccc4o3)cc2)sc1C(=O)O)C1CC=C(C)CC1 (stereo not shown) [Compound 83] here?
Answer: < 0.1 µM

Question: And the EC50 [1]?
Answer: 0.1 to 8.3 µM

Question: What about the CC50 [2] of the same compound?
Answer: > 8.3 µM

Question: Which IC50 [1] does the source give for COP(=O)(Nc1cc(-c2ccc(Br)cc2)sc1C(=O)O)c1ccc(C)cc1C (stereo not shown) [Compound 141] here?
Answer: < 0.1 µM

Question: What about the EC50 [1] of the same compound?
Answer: 0.1 to 8.3 µM

Question: What about the CC50 [2] of the same compound?
Answer: > 8.3 µM

Question: With COP(=O)(Nc1cc(-c2ccc(C#Cc3ccsc3)cc2)sc1C(=O)O)c1ccc(C)cc1C (stereo not shown) [Compound 103] as the compound, how does the IC50 [1] read?
Answer: < 0.1 µM

Question: What about the EC50 [1] of the same compound?
Answer: < 0.1 µM

Question: What about the CC50 [2] of the same compound?
Answer: > 8.3 µM

Question: For COP(=O)(Nc1cc(-c2ccc(Cl)cc2)sc1C(N)=O)c1ccc(C)cc1C (stereo not shown) [Compound 111], which IC50 [1] is on record?
Answer: > 8.3 µM

Question: What about the EC50 [1] of the same compound?
Answer: > 8.3 µM

Question: What about the CC50 [2] of the same compound?
Answer: > 8.3 µM

Question: For COP(=O)(Nc1cc(-c2ccc(NC(=O)c3cscn3)cc2)sc1C(=O)O)c1ccc(C)cc1C (stereo not shown) [Compound 115], which IC50 [1] is on record?
Answer: < 0.1 µM

Question: What about the EC50 [1] of the same compound?
Answer: < 0.1 µM

Question: And the CC50 [2]?
Answer: > 8.3 µM

Question: For COP(=O)(Nc1cc(-c2cc3ccccc3s2)sc1C(=O)O)c1ccc(C)cc1C (stereo not shown) [Compound 97], which IC50 [1] is on record?
Answer: < 0.1 µM

Question: And the EC50 [1]?
Answer: 0.1 to 8.3 µM

Question: What about the CC50 [2] of the same compound?
Answer: > 8.3 µM

Question: With COP(=O)(Nc1cc(-c2ccc(Cl)cc2)sc1C(=O)O)c1ccc(Cl)cc1C (stereo not shown) [Compound 134] as the compound, how does the IC50 [1] read?
Answer: < 0.1 µM

Question: What about the EC50 [1] of the same compound?
Answer: 0.1 to 8.3 µM

Question: And the CC50 [2]?
Answer: > 8.3 µM

Question: With COC(=O)c1sc(-c2ccc(Cl)cc2)cc1NP(=O)(OC)c1ccc(C)cc1C (stereo not shown) [Compound 140] as the compound, how does the EC50 [1] read?
Answer: > 8.3 µM

Question: What about the CC50 [2] of the same compound?
Answer: > 8.3 µM

Question: For COP(=O)(Nc1cc(-c2ccc(Cl)cc2F)sc1C(=O)O)c1ccc(C)cc1C (stereo not shown) [Compound 79], which IC50 [1] is on record?
Answer: < 0.1 µM

Question: And the EC50 [1]?
Answer: 0.1 to 8.3 µM

Question: What about the CC50 [2] of the same compound?
Answer: > 8.3 µM

Question: For COP(=O)(Nc1cc(-c2cccnc2)sc1C(=O)O)c1ccc(C)cc1C (stereo not shown) [Compound 99], which IC50 [1] is on record?
Answer: 0.1 to 8.3 µM

Question: And the EC50 [1]?
Answer: > 8.3 µM

Question: And the CC50 [2]?
Answer: > 8.3 µM

Question: Which IC50 [1] does the source give for COP(=O)(Nc1cc(-c2ccc(C#Cc3cncn3C)cc2)sc1C(=O)O)c1ccc(C)cc1C (stereo not shown) [Compound 101] here?
Answer: < 0.1 µM

Question: What about the EC50 [1] of the same compound?
Answer: 0.1 to 8.3 µM

Question: And the CC50 [2]?
Answer: > 8.3 µM

Question: Which IC50 [1] does the source give for CCOP(=O)(Nc1cc(-c2ccc(F)cc2)sc1C(=O)O)c1ccc(C)cc1C (stereo not shown) [Compound 22, 2-Thiophenecarboxylic acid, 3-N-[(2,4-dimethyl-phenyl)-phosphonamidateethyl ester]-5-(4-fluorophenyl)] here?
Answer: 0.1 to 8.3 µM

Question: And the EC50 [1]?
Answer: 0.1 to 8.3 µM

Question: What about the CC50 [2] of the same compound?
Answer: > 8.3 µM

Question: With COP(=O)(Nc1cc(-c2cccs2)sc1C(=O)O)c1ccc(C)cc1C (stereo not shown) [Compound 98] as the compound, how does the IC50 [1] read?
Answer: 0.1 to 8.3 µM

Question: And the EC50 [1]?
Answer: 0.1 to 8.3 µM

Question: What about the CC50 [2] of the same compound?
Answer: > 8.3 µM

Question: Which results are given for C#CCOP(=O)(Nc1cc(-c2ccc(Cl)cc2)sc1C(=O)O)c1ccc(C)cc1C (stereo not shown) [Compound 106]?
Answer: IC50 [1]: 0.1 to 8.3 µM; EC50 [1]: 0.1 to 8.3 µM; CC50 [2]: > 8.3 µM

Question: Which IC50 [1] does the source give for CCOP(=O)(Nc1cc(-c2ccc(F)cc2)sc1C(=O)OC)c1ccc(C)cc1C (stereo not shown) [Compound 173] here?
Answer: > 8.3 µM

Question: What about the EC50 [1] of the same compound?
Answer: > 8.3 µM

Question: And the CC50 [2]?
Answer: > 8.3 µM

Question: For COc1cc(-c2ccc(-c3cc(NP(=O)(OC)c4ccc(C)cc4C)c(C(=O)O)s3)cc2)cc(OC)c1OC (stereo not shown) [Compound 123], which IC50 [1] is on record?
Answer: 0.1 to 8.3 µM

Question: And the EC50 [1]?
Answer: > 8.3 µM

Question: What about the CC50 [2] of the same compound?
Answer: > 8.3 µM

Question: Which results are given for COP(=O)(Cc1cc(-c2ccc(-c3cc4ncccc4o3)cc2)sc1C(=O)O)c1ccc(C)cc1C (stereo not shown) [Compound 174]?
Answer: IC50 [1]: < 0.1 µM; EC50 [1]: < 0.1 µM; CC50 [2]: > 8.3 µM

Question: For COP(=O)(Nc1cc(-c2ccc(-c3cc4nc(C)cc(N)n4n3)cc2)sc1C(=O)O)c1ccc(C)cc1C (stereo not shown) [Compound 100], which IC50 [1] is on record?
Answer: < 0.1 µM

Question: And the EC50 [1]?
Answer: < 0.1 µM

Question: And the CC50 [2]?
Answer: > 8.3 µM

Question: For COP(=O)(Nc1cc(-c2ccc(-c3cccc([N+](=O)[O-])c3)cc2)sc1C(=O)O)c1ccc(C)cc1C (stereo not shown) [Compound 120], which IC50 [1] is on record?
Answer: 0.1 to 8.3 µM

Question: What about the EC50 [1] of the same compound?
Answer: > 8.3 µM

Question: And the CC50 [2]?
Answer: > 8.3 µM

Question: Which results are given for CCOP(=O)(Nc1cc(-c2ccc(Cl)c(Cl)c2)sc1C(=O)O)c1ccc(Cl)cc1Cl (stereo not shown) [Compound 161]?
Answer: IC50 [1]: 0.1 to 8.3 µM; EC50 [1]: > 8.3 µM; CC50 [2]: > 8.3 µM

Question: Which IC50 [1] does the source give for COP(=O)(Nc1cc(-c2ccc(-c3cc4ncccn4n3)cc2)sc1C(=O)O)c1ccc(C)cc1C (stereo not shown) [Compound 26] here?
Answer: < 0.1 µM

Question: What about the EC50 [1] of the same compound?
Answer: < 0.1 µM

Question: And the CC50 [2]?
Answer: > 8.3 µM

Question: For COP(=O)(c1ccc(C)cc1C)N(C)c1cc(-c2ccc(-c3cc4ncccn4n3)cc2)sc1C(=O)O (stereo not shown) [Compound 138], which IC50 [1] is on record?
Answer: < 0.1 µM

Question: And the EC50 [1]?
Answer: < 0.1 µM

Question: And the CC50 [2]?
Answer: > 8.3 µM

Question: What does the source list for CCOP(=O)(c1ccc(C)cc1C)N(c1cc(-c2ccc(F)cc2)sc1C(=O)O)C(C)C (stereo not shown) [Compound 33, 2-Thiophenecarboxylic acid, 3-N-isopropyl-N-[(2,4-dimethyl-phenyl)-phosphonamidateethyl ester]-5-(4-fluorophenyl)]?
Answer: IC50 [1]: 0.1 to 8.3 µM; EC50 [1]: 0.1 to 8.3 µM; CC50 [2]: > 8.3 µM

Question: With COc1ccc(-c2cc(NP(=O)(OC)c3ccc(C)cc3C)c(C(=O)O)s2)cc1 (stereo not shown) [Compound 149] as the compound, how does the IC50 [1] read?
Answer: < 0.1 µM

Question: And the EC50 [1]?
Answer: 0.1 to 8.3 µM

Question: What about the CC50 [2] of the same compound?
Answer: > 8.3 µM

Question: Which results are given for COC(=O)c1sc(-c2ccc(Br)cc2)cc1NP(=O)(OC)c1ccc(C)cc1C (stereo not shown) [Compound 148]?
Answer: IC50 [1]: > 8.3 µM; EC50 [1]: > 8.3 µM; CC50 [2]: > 8.3 µM

Question: Which results are given for CCOP(=O)(Nc1cc(-c2cc3ccccc3s2)sc1C(=O)O)c1ccc(Cl)cc1Cl (stereo not shown) [Compound 157]?
Answer: IC50 [1]: 0.1 to 8.3 µM; EC50 [1]: > 8.3 µM; CC50 [2]: > 8.3 µM

Question: For COP(=O)(Nc1cc(-c2ccc(-c3ccc(C(F)(F)F)cc3)cc2)sc1C(=O)O)c1ccc(C)cc1C (stereo not shown) [Compound 129], which IC50 [1] is on record?
Answer: < 0.1 µM

Question: And the EC50 [1]?
Answer: 0.1 to 8.3 µM

Question: And the CC50 [2]?
Answer: > 8.3 µM

Question: What does the source list for COP(=O)(Nc1cc(-c2ccccc2)sc1C(=O)O)c1ccc(C)cc1C (stereo not shown) [Compound 27, 2-Thiophenecarboxylic acid, 3-N-[(2,4-dimethyl-phenyl)-phosphonamidatemethyl ester]-5-phenyl]?
Answer: IC50 [1]: < 0.1 µM; EC50 [1]: 0.1 to 8.3 µM; CC50 [2]: > 8.3 µM

Question: With CCOP(=O)(Cc1cc(-c2ccc(-c3cc4ncccn4n3)cc2)sc1C(=O)O)c1ccc(C)cc1C (stereo not shown) [Compound 175] as the compound, how does the IC50 [1] read?
Answer: < 0.1 µM

Question: What about the EC50 [1] of the same compound?
Answer: 0.1 to 8.3 µM

Question: And the CC50 [2]?
Answer: > 8.3 µM
